{"source": "patent US6812236B2", "about": "“Compounds useful in therapy” (Pfizer Inc., priority 1999, dated 2004)", "data": [{"target": "T1, mu opioid receptor (Canis lupus familiaris, UniProt A0A0F6TMT6)", "T1 construct": "Laboratory bred beagles were used as a source of dog brain tissue; from tissue; host or cells: beagle dog brain without cerebellum, washed membrane pellet", "T1 sequence (A0A0F6TMT6 1-401)": "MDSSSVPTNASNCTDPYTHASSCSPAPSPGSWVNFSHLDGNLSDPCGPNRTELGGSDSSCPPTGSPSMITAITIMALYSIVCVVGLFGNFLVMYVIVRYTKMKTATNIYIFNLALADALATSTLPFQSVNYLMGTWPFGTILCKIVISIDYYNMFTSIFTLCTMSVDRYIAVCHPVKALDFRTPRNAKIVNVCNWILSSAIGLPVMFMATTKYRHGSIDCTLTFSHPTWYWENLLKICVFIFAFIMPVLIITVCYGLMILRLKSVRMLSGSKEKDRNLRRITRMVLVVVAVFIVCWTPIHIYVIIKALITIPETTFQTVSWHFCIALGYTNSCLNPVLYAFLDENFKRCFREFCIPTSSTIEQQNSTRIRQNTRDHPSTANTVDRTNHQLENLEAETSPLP", "test": "mu opioid receptor binding assay in dog brain membranes (3H-DAMGO displacement)", "conditions": "dog brain tissue, read-out: Ki values for the μ receptor", "protocol": "The assays were conducted by the following procedure.\nLaboratory bred beagles were used as a source of dog brain tissue. Animals were euthanised, their brains removed and the cerebellum discarded. The remaining brain tissue was sectioned into small pieces approximately 3 g in weight and homogenised in 50 mM Tris pH 7.4 buffer at 4° C. using a Kinematica Polytron™ tissue homogeniser. The resulting homogenate was centrifuged at 48,400× g for 10 minutes and the supernatant discarded. The pellet was resuspended in Tris buffer and incubated at 37° C. for 10 minutes. Centrifugation, resuspension and incubation steps were repeated twice more, and the final pellet was resuspended in Tris buffer and stored at −80° C. Membrane material prepared in this manner could be stored for up to four weeks prior to use.\nFor mu assays, increasing concentrations of experimental compound, (5×10^−12 to 10^−5 M), Tris buffer and ^3H ligand, ([D-Ala^2,N-Me-Phe^4,Gly-ol^5]-Enkephalin, DAMGO), were combined in polystyrene tubes. The reaction was initiated by the addition of tissue, and the mixture was incubated at room temperature for 90 minutes. The reaction was terminated by rapid filtration using a Brandel Cell Harvester™ through Betaplate™ GF/A glass fibre filters pre-soaked in 50 mM Tris pH 7.4, 0.1% polyethylenimine buffer. The filters were then washed three times with 0.5 mL ice-cold Tris pH 7.4 buffer. Washed filters were placed in bags and Starscint™ scintillant added. Bags containing the filters and scintillant were heat sealed and counted by a Betaplate™ 1204 beta counter.\nDuplicate samples were run for each experimental compound and the data generated was analysed using IC50 analysis software in Graphpad Prism. Ki values were calculated using Graphpad Prism according to the following formula: […]\nwhere IC50 is the concentration at which 50% of the ^3H ligand is displaced by the test compound and KD is the dissociation constant for the ^3H ligand at the receptor site.", "units": {"Ki": "µM"}, "values": [{"compound": "CCNC(=O)c1cccc(C2(C)CCN(CCCCC(C)C)CC2C)c1", "note": "(stereo not shown) [Example 18, 1-(5-Methylhexyl)-3,4-dimethyl-4-(3-(N-ethyl)-amidophenyl)piperidine]", "Ki": "≤ 4"}, {"compound": "CCCCCCN1CCC(C)(c2cccc(C(=O)NCC)c2)C(C)C1", "note": "(stereo not shown) [Example 8, 1-Hexyl-3,4-dimethyl-4-(3-(N-ethyl)amidophenyl)-piperidine]", "Ki": "≤ 4"}, {"compound": "CCCCCCN1CCC(C)(c2cccc(C(=O)NC(C)C)c2)C(C)C1", "note": "(stereo not shown) [Example 4, 1-Hexyl-3,4-dimethyl-4-(3-(N-isopropyl)amidophenyl)-piperidine]", "Ki": "≤ 4"}, {"compound": "CCNC(=O)c1cccc(C2(C)CCN(CCCCCC#N)CC2C)c1", "note": "(stereo not shown) [Example 20, 1-(5-Cyanopentyl)-3,4-dimethyl-4-(3-(N-ethyl)-amidophenyl)piperidine]", "Ki": "≤ 4"}]}]}
